{
  "source": "patent US20160367515A1",
  "about": "“Improved delivery of poorly water soluble drugs with aphafetoprotein stabilized with metal ions” (Oy Safemed Ltd., priority 2013, published 2016)",
  "key": {"[1]": {"system": "breast cancer cells MCF-7", "assay": "Microscopic evaluation (DAPI, cell count by ImageJ) of viability and apoptosis of MCF-7 cells", "format": "cell-based, human", "conditions": "MCF-7, 48 h", "description": "Concentrations of the compounds were: rhAFP: 3.0 μM, Ptx: 10 μM. Incubation time was 48 h. Patterns on the top (A): magnification ×100; bottom (B): magnification ×400. Cell nuclei were stained with DAPI and visualized with a fluorescent microscope Axioplan, Zeiss equipped with corresponding color filter kits. Apoptotic nuclei at s panel B are shown by arrows. […] Total number of cells in the control wells was taken as 100%. The average data for five wells±mean square deviation are shown.\nrhAFP/Ptx equimolar complex was also tested for its growth suppressive activity against tumor cells in vitro. […] Apoptotic cells with condensed chromatin due to rhAFP/Ptx treatments are shown at FIG. 3B with arrows.\nMCF-7 cells were seeded onto the microscopic plates Lab-Tek™ Chamber Slides (Thermo Fisher Scientific-Nunc, Germany) for 48 h to reach of 80% confluence and thereafter were subjected to 48-h treatments with Ptx dissolved in DMSO (10 nM), Zn-rhAFP (1.4 μM), or their combination Zn-rhAFP/Ptx (1.4 μM/10 nM). Similarly, the tests had been performed with non-glycosylated rhAFPo species. Thereafter the cells were fixed with 100% ice-cold acetone and stained with DAPI (Molecular probes, USA). Control cells were incubated without additions. […] The quantity of the cells in the various experimental wells in the selected fields of view was assessed by using ImageJ software. […]"}, "NF-κB p65": {"system": "NF-κB p65", "assay": "Immunofluorescence of activated NF-κB p65 nuclear translocation in MCF-7 cells", "format": "cell-based, human", "conditions": "MCF-7, 2 h treatment", "description": "The cells were incubated with paclitaxel (10 μM) with addition of Zn-rhAFP (3.0 μM) and/or curcumin (3.0 μM) for 2 h and then assessed for localization of p65 by immunocytochemistry. Activated […] (p65) was detected by treatment of the cells with phospho […] p65 rabbit polyclonal antibody (Cell signaling technologies, USA) followed by secondary goat anti-rabbit Ab-Alexa594 red (Molecular Probes, USA). Cells were visualized at magnification ×400 by fluorescent microscope Axioplan; Zeiss (Germany) equipped with corresponding color filter kits.\nThe relative amount of p65 in the cytosol and nucleus of the cells was assessed by ImageJ software and was taken as 100% in the control (cytosol+nucleus). Total amount of activated p65 in control untreated cells was taken as 100%. The experimental data are represented as percentage of control±SD from three independent calculations in various observation fields.\nMCF-7 cells were seeded on the microscopic plates Lab-Tek™ Chamber Slides (Thermo Fisher Scientific-Nunc, Germany) and cultivated at 37° C. at 5% CO2 atmosphere for 48 h to allow cell adaptation to reach 80% confluence. To test effects of chemotherapeutic preparations on the activation and translocation of NF-κB, cells were treated for 2 h with Ptx (10 nM), curcumin (30 μM); Zn-rhAFP (1.4 μM), or their combination Zn-rhAFP/Ptx/Cur, after which they were fixed with 100% ice-cold acetone. Control cells were incubated without additions and their NF-κB content was taken as 100%. Activated NF-κB was detected by treatment of the cells with phospho NF-κB p65 rabbit polyclonal antibody (Cell signaling technologies, USA) followed by the secondary goat anti-rabbit antibodies Ab-Alexa594 (Molecular Probes, USA). Nuclei were visualized by staining with DAPI (Molecular probes, USA). Cells were visualized at magnification ×400 by fluorescent microscope Axioplan (Zeiss, Germany) equipped with corresponding color filter kits. Distribution throughout the cell of the activated p65 was assessed by the ImageJ software and was taken as 100% in the control samples (cytosol+nucleus)."}},
  "data": [
    {"smiles": "CC(=O)O[C@H]1C(=O)[C@@]2(C)[C@H]([C@H](OC(=O)c3ccccc3)[C@]3(O)C[C@H](OC(=O)[C@H](O)[C@@H](NC(=O)c4ccccc4)c4ccccc4)C(C)=C1C3(C)C)[C@]1(OC(C)=O)CO[C@@H]1C[C@@H]2O", "note": "[Ptx, paclitaxel]", "values": [
      {"measurement": "viable cell count", "setting": "[1]; FIG. 3: rhAFP 3.0 μM, Ptx 10 μM", "value": "54 % of control"},
      {"measurement": "cell death", "setting": "[1]; Ptx 10 nM, Zn-rhAFP 1.4 μM", "value": 55, "unit": "%"},
      {"measurement": "effect on activated p65 (RelA) in the cell nucleus", "setting": "NF-κB p65", "value": "significant enhance of activated p65 localized in the nuclear region"}
    ]}
  ]
}
